Structures can show the parent of a compound that is named as a salt.
Columns and labels:
[1] = test system: S. maltophilia GC 1712 (L1); assay: MIC microbroth dilution; β-lactamase class B; type: cell-based; conditions: Stenotrophomonas maltophilia, Cefepime + 4 ug/ml Compound 2, read-out: MIC
Description: (§1) The in vitro activities of the antibiotics were determined by the microbroth dilution method as recommended by the National Committee for Clinical Laboratory Standards (NCCLS). (NCCLS. 2000. Methods for Dilution Antimicrobial Susceptibility Tests for Bacteria That Grow Aerobically; Approved Standards: M7-A5, vol. 19. National Committee for Clinical Laboratory Standards, Villanova, Pa.). Mueller-Hinton II broth (MHBII)(BBL Cockeysville, Md.), was used for the testing procedure. […]. The plates were incubated for 18-22 hours at 35° C. in ambient air.

[2] = test system: E. coli GC 2149 (ACT-1; TEM-1 + pl 5.6); assay: MIC microbroth dilution; β-lactamase class A, A (ESBL), C; type: cell-based; conditions: Escherichia coli, Cefepime + 4 ug/ml Compound 2, read-out: MIC
Description: as §1

[3] = test system: K. pneumoniae GC 2826 Act 1 + 3 additional; assay: as above; type: cell-based; conditions: Klebsiella pneumoniae, Cefepime + 4 ug/ml Compound 2, read-out: MIC
Description: as §1

[4] = test system: K. pneumoniae GC 2825 Act 1 + 3 additional; assay: as above; type: cell-based; conditions: Klebsiella pneumoniae, Cefepime + 4 ug/ml Compound 2, read-out: MIC
Description: as §1

[5] = test system: E. coli GC 6197 (TEM-1 + SHV-7 + CMY-2); assay: as above; type: cell-based; conditions: Escherichia coli, Cefepime + 4 ug/ml Compound 2, read-out: MIC
Description: as §1

E. coli GC 2300 (TEM-28) = assay: MIC microbroth dilution; β-lactamase class A (ESBL); type: cell-based; conditions: Escherichia coli, Cefepime + 4 ug/ml Compound 2, read-out: MIC
Procedure, shortened: (§2)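 MIC endpoints were read after 18-22 hours of incubation (35° C., ambient air) in Mueller-Hinton II broth microdilution plates run to NCCLS M7-A5.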

E. coli GC 2400 (TEM-43) = assay: as above; type: cell-based; conditions: Escherichia coli, Cefepime + 4 ug/ml Compound 2, read-out: MIC
Procedure, shortened: as §2

[6] = test system: S. typhimurium GC 4197 CTX-M-5; assay: as above; type: cell-based; conditions: Salmonella enterica, Cefepime + 4 ug/ml Compound 2, read-out: MIC
Procedure, shortened: as §2

E. coli GC 1807 OXA-7 = assay: MIC microbroth dilution; β-lactamase class D; type: cell-based; conditions: Escherichia coli, GC1807OXA7, E. coli GC 1807; Cefepime + 4 ug/ml Compound 2; read-out: MIC
Description: as §1

E. coli GC 1480 OXA-1 = assay: MIC microbroth dilution; β-lactamase class D; type: cell-based; conditions: Escherichia coli, GC1480OXA1, E. coli GC 1480; Cefepime + 4 ug/ml Compound 2; read-out: MIC
Description: as §1

[7] = test system: E. coli GAR 5929 TEM, OXA, Act-1, CTX (By PCR only); assay: MIC microbroth dilution; β-lactamase class A, C, D; type: cell-based; conditions: Escherichia coli, Cefepime + 4 ug/ml Compound 2, read-out: MIC
Description: as §1

[8] = test system: E. coli GAR 6649 TEM, OXA, CTX (By PCR only); assay: MIC microbroth dilution; β-lactamase class A, A (ESBL), D; type: cell-based; conditions: Escherichia coli, Cefepime + 4 ug/ml Compound 2, read-out: MIC
Description: as §1

E. coli GC 2920 (IRT-2) = assay: MIC microbroth dilution; β-lactamase class A (IRT); type: cell-based; conditions: Escherichia coli, Cefepime + 4 ug/ml Compound 2, read-out: MIC
Description: as §1

[9] = test system: E. coli GC 4971 OXA-1, TEM-1; assay: MIC microbroth dilution; β-lactamase class A, D; type: cell-based; conditions: Escherichia coli, Cefepime + 4 ug/ml Compound 2, read-out: MIC
Description: as §1

[10] = test system: E. aerogenes GC 7039 TEM-4, Amp C inducable; assay: MIC microbroth dilution; β-lactamase class A (ESBL), C; type: cell-based; conditions: Klebsiella aerogenes, Cefepime + 4 ug/ml Compound 2, read-out: MIC
Description: as §1

[11] = test system: E. aerogenes GC 7036 TEM-24, Amp C inducable; assay: as above; type: cell-based; conditions: Klebsiella aerogenes, Cefepime + 4 ug/ml Compound 2, read-out: MIC
Description: as §1

[12] = test system: E. cloacae GC 7065 TEM-26, SHV-12 Amp C inducable; assay: as above; type: cell-based; conditions: Enterobacter cloacae, Cefepime + 4 ug/ml Compound 2, read-out: MIC
Description: as §1

[13] = test system: M. morganii GC 1617 TEM-10 + inducible AmpC; assay: as above; type: cell-based; conditions: Morganella morganii, Cefepime + 4 ug/ml Compound 2, read-out: MIC
Description: as §1

[14] = test system: E. cloacae GC 7052 SHV-5, Amp C inducable; assay: as above; type: cell-based; conditions: Enterobacter cloacae, Cefepime + 4 ug/ml Compound 2, read-out: MIC
Description: as §1

K. pn GC 1830 (SHV-2) = assay: MIC microbroth dilution; β-lactamase class A (ESBL); type: cell-based, K. pneumoniae; conditions: Klebsiella pneumoniae, Cefepime + 4 ug/ml Compound 2, read-out: MIC
Description: as §1

K. pn GC 6639 (SHV-13) = assay: as above; type: cell-based, K. pneumoniae; conditions: Klebsiella pneumoniae, Cefepime + 4 ug/ml Compound 2, read-out: MIC
Description: as §1

K. pn GC 1832 (SHV-4) = assay: as above; type: cell-based, K. pneumoniae; conditions: Klebsiella pneumoniae, Cefepime + 4 ug/ml Compound 2, read-out: MIC
Description: as §1

K. pn GC 1516 (TEM-26) = assay: as above; type: cell-based, K. pneumoniae; conditions: Klebsiella pneumoniae, Cefepime + 4 ug/ml Compound 2, read-out: MIC
Description: as §1

K. pn GC 1510 (TEM-10) = assay: as above; type: cell-based, K. pneumoniae; conditions: Klebsiella pneumoniae, Cefepime + 4 ug/ml Compound 2, read-out: MIC
Description: as §1

[15] = test system: E. cloacae GC 1477 (AmpC); assay: MIC microbroth dilution; β-lactamase class C; type: cell-based; conditions: Enterobacter cloacae, Cefepime + 4 ug/ml Compound 2, read-out: MIC
Description: as §1

[16] = test system: E. aerogenes 1697-MP GC 7845 AmpC; assay: MIC microbroth dilution; β-lactamase class C; type: cell-based; conditions: Klebsiella aerogenes; E. aerogenes GC 7845; Cefepime + 4 ug/ml Compound 2; read-out: MIC
Description: as §1

[17] = test system: P. aeruginosa GC 1763 AmpC-inducible; assay: MIC microbroth dilution; β-lactamase class C; type: cell-based; conditions: Pseudomonas aeruginosa, Cefepime + 4 ug/ml Compound 2, read-out: MIC
Description: as §1

E. cloacae GC 1475 (P99) = assay: MIC microbroth dilution; β-lactamase class C; type: cell-based; conditions: Enterobacter cloacae, Cefepime + 4 ug/ml Compound 2, read-out: MIC
Description: as §1

[18] = test system: S. marcescens GC 4132 (AmpC); assay: MIC microbroth dilution; β-lactamase class C; type: cell-based; conditions: Serratia marcescens, Cefepime + 4 ug/ml Compound 2, read-out: MIC
Description: as §1

[19] = test system: S. marcescens PT 696 Inducible AmpC; assay: MIC microbroth dilution; β-lactamase class C; type: cell-based; conditions: Serratia marcescens, Cefepime + 4 ug/ml Compound 2, read-out: MIC
Description: as §1

[20] = test system: P. aeruginosa GC 3153 Inducible AmpC; assay: MIC microbroth dilution; β-lactamase class C; type: cell-based; conditions: Pseudomonas aeruginosa, Cefepime + 4 ug/ml Compound 2, read-out: MIC
Description: as §1

[21] = test system: A. baumannii GC 7684 AmpC, AmpC; assay: MIC microbroth dilution; β-lactamase class C; type: cell-based; conditions: Acinetobacter baumannii, Cefepime + 4 ug/ml Compound 2, read-out: MIC
Description: as §1

E. coli GC 2847 (TEM-1) = assay: MIC microbroth dilution; β-lactamase class A; type: cell-based; conditions: Escherichia coli, Cefepime + 4 ug/ml Compound 2, read-out: MIC
Description: as §1

[22] = test system: K. pn GC 2391 (pl 5.4; 5.6; 7.6; 8.7 B-lactamases); assay: MIC microbroth dilution; β-lactamase class A, A (ESBL), C; type: cell-based, K. pneumoniae; conditions: Klebsiella pneumoniae, Cefepime + 4 ug/ml Compound 2, read-out: MIC
Description: as §1

SMILES: O=C(O)C1=CS[C@@H]2/C(=C\c3cn4c(n3)COCC4)C(=O)N12 [Compound 2, (5R), (6Z)-6-(5,6-Dihydro-8H-imidazo[2.1-c][1,4]oxazin-2-ylmethylene)-7-oxo-4-thia-1-azabicyclo[3.2.0]hept-2-ene-2-carboxylic Acid, Sodium Salt]
- MIC [1]: 16 µg/mL
- MIC [2]: 0.5 µg/mL
- MIC [3]: 1 µg/mL
- MIC [4]: 0.12 µg/mL
- MIC [5]: 2 µg/mL
- MIC (E. coli GC 2300 (TEM-28)): 0.25 µg/mL
- MIC (E. coli GC 2400 (TEM-43)): 0.5 µg/mL
- MIC [6]: 0.25 µg/mL
- MIC (E. coli GC 1807 OXA-7): 0.03 µg/mL
- MIC (E. coli GC 1480 OXA-1): 0.06 µg/mL
- MIC [7]: 0.12 µg/mL
- MIC [8]: 1 µg/mL
- MIC (E. coli GC 2920 (IRT-2)): 0.06 µg/mL
- MIC [9]: 0.12 µg/mL
- MIC [10]: 0.06 µg/mL
- MIC [11]: 0.06 µg/mL
- MIC [12]: 0.06 µg/mL
- MIC [13]: 0.12 µg/mL
- MIC [14]: 1 µg/mL
- MIC (K. pn GC 1830 (SHV-2)): 0.06 µg/mL
- MIC (K. pn GC 6639 (SHV-13)): 0.12 µg/mL
- MIC (K. pn GC 1832 (SHV-4)): 0.06 µg/mL
- MIC (K. pn GC 1516 (TEM-26)): 0.25 µg/mL
- MIC (K. pn GC 1510 (TEM-10)): 0.03 µg/mL
- MIC [15]: 0.25 µg/mL
- MIC [16]: 0.03 µg/mL
- MIC [17]: 2 µg/mL
- MIC (E. cloacae GC 1475 (P99)): 0.12 µg/mL
- MIC [18]: 0.12 µg/mL
- MIC [19]: 0.06 µg/mL
- MIC [20]: 8 µg/mL
- MIC [21]: 8 µg/mL
- MIC (E. coli GC 2847 (TEM-1)): 0.06 µg/mL
- MIC [22]: 0.5 µg/mL

From patent US20070129344A1, “Bicyclic 6-alkylidene-penem beta-lactamase inhibitors and beta-lactam antibiotic combination: a broad spectrum antibiotic” (priority 2005, published 2007)
